Source: article PMC11539071, “Optimization of Biocatalytic Rhododendrol Production from Biogenic Rhododendrol Glycosides” (ACS Sustainable Chemistry & Engineering, 2024)

How the values were obtained:
[1] = test system: T1, β-glucosidase from almonds; test: initial rates by HPLC of rhododendrol, Michaelis-Menten fit; format: biochemical, Prunus dulcis; settings: 0.1 M phosphate buffer pH 6, 40 °C; substrate from crude glycoside mixture containing apiosylrhododendrin
T1 construct: gene emulsin; native commercial enzyme preparation from almonds (Sigma-Aldrich)
Text: initial rates by HPLC of rhododendrol, Michaelis-Menten fit on β-glucosidase from almonds

[2] = target: T1, β-glucosidase from almonds; test: initial rates by HPLC, product inhibition fit; format: biochemical, Prunus dulcis; settings: competitive; substrate betuloside at saturating level; 0.1 M phosphate buffer pH 6, 40 °C
Text: initial rates by HPLC, product inhibition fit on β-glucosidase from almonds

Km [1] | Ki [2] | Structure (SMILES)
26.7 ± 3.76 mM |  | C[C@H](CCc1ccc(O)cc1)O[C@@H]1O[C@H](CO)[C@@H](O)[C@H](O)[C@H]1O (mixture of isomers) [betuloside]
 | 7.13 ± 2.2 mM | CC(O)CCc1ccc(O)cc1 (racemic) [rhododendrol]
 | 65.5 ± 17.2 mM | OC[C@H]1OC(O)[C@H](O)[C@@H](O)[C@@H]1O (stereo partly drawn) [glucose]
